Results published in ChEMBL document CHEMBL1201862, “PubChem BioAssay data set” (2004).
Activity calls are given as the source filed them. Rule as the data show it, for most assays here: actives have a measured IC50 and inactives only a lower limit.

Assays:
Format in all cases: functional
[1] = target: T1, Sentrin-specific protease 8 (Homo sapiens, UniProt Q96LD8); test: inhibition of human SENP8 cleavage activity – biochemical, luminescence, SAR follow-up (AID 504501)
T1 sequence (Q96LD8 whole entry): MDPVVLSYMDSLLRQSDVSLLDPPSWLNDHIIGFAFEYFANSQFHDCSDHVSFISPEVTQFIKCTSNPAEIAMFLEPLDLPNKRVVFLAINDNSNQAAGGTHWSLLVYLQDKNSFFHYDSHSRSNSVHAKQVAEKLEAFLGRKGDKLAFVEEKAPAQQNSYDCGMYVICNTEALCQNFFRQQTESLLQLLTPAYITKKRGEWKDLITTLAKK

[2] = target: T2, Caspase-3 (Homo sapiens, UniProt P42574); test: SAR Analysis of small molecule inhibitors of Sentrin-specific proteases (SENPs) using a Caspase-3 Selectivity assay. [Related pubchem assays (depositor defined):AID2540, AID2599, AID434973, AID489001]
T2 sequence (P42574 whole entry): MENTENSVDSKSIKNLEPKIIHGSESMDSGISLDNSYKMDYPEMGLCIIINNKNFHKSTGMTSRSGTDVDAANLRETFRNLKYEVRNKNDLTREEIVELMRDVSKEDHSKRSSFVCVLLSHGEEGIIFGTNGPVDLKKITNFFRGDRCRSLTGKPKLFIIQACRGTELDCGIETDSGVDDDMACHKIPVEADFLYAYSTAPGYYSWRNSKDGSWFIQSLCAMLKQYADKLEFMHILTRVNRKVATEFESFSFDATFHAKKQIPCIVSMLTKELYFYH

[3] = target: T3, Sentrin-specific protease 6 (Homo sapiens, UniProt Q9GZR1); test: SAR Analysis of small molecule inhibitors of Sentrin-specific protease 6 (SENP6) using a Luminescent assay. [Related pubchem assays (depositor defined):AID2582, AID2599]
T3 sequence (Q9GZR1 whole entry): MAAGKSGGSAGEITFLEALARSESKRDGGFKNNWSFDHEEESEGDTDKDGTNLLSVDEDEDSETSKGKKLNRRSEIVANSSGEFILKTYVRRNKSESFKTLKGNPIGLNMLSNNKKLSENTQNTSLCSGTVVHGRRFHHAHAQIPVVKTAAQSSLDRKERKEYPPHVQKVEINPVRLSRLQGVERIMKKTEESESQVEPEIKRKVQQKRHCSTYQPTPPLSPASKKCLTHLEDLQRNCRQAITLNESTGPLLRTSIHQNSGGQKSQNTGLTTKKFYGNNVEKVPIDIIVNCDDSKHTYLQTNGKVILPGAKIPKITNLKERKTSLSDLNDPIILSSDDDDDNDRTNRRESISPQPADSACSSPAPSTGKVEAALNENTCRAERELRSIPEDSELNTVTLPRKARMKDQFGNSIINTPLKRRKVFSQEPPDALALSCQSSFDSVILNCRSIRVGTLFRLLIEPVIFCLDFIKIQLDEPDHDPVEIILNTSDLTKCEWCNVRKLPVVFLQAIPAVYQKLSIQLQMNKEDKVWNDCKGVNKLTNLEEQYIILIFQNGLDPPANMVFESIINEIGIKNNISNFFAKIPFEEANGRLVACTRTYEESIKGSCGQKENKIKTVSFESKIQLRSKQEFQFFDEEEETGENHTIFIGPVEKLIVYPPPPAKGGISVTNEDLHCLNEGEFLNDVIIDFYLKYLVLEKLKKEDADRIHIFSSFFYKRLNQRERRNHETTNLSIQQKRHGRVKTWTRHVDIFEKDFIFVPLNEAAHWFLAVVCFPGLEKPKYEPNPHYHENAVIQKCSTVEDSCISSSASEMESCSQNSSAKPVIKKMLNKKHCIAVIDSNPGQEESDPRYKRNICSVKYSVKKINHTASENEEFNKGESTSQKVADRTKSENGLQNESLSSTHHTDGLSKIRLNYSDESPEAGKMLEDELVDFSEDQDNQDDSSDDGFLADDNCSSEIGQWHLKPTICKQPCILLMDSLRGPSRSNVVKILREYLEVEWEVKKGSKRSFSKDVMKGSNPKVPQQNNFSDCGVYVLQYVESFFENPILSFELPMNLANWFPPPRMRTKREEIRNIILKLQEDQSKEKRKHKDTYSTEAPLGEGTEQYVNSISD

[4] = target: T4, Sentrin-specific protease 7 (Homo sapiens, UniProt Q9BQF6); test: inhibition of human SENP7 cleavage activity – biochemical, luminescence, SAR follow-up (AID 504497)
T4 sequence (Q9BQF6 whole entry): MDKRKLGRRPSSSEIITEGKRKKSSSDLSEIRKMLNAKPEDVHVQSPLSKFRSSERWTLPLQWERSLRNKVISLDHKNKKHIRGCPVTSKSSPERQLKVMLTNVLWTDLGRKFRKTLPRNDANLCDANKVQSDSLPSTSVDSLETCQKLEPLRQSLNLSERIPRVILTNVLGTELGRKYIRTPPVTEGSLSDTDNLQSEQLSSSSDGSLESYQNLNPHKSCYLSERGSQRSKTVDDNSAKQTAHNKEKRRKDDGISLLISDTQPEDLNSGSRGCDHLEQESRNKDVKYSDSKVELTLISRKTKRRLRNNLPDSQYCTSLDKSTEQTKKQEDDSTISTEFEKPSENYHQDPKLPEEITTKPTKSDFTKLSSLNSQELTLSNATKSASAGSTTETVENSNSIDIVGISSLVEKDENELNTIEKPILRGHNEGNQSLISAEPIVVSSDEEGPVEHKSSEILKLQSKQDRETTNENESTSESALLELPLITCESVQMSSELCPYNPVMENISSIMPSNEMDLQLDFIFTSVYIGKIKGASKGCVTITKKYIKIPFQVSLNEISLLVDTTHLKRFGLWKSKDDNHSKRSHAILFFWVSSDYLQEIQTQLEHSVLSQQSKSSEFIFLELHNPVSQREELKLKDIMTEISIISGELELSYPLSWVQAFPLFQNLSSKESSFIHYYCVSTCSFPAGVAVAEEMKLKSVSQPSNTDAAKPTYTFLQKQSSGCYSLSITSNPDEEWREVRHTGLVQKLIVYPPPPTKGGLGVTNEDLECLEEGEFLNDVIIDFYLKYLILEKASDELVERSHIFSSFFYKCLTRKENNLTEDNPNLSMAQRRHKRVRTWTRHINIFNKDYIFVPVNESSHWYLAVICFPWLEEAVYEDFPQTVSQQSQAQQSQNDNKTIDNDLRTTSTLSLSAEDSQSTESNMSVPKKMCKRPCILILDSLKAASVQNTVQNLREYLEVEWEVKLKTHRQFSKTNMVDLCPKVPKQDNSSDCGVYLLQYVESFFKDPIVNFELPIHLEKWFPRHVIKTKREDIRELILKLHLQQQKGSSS

[5] = viability of uninfected HEp-2 cells – cell-based, HTS, cytotoxicity control for RSV inhibitor project, dose response (AID 2410); settings: human respiratory syncytial virus
[6] = target: T5, Ubiquitin-conjugating enzyme E2 N (Homo sapiens, UniProt P61088);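 also: Dose-response confirmation in a TR-FRET assay detecting UBC13-driven polyubiquitin chain formation, inhibition measured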
T5 sequence (P61088 whole entry): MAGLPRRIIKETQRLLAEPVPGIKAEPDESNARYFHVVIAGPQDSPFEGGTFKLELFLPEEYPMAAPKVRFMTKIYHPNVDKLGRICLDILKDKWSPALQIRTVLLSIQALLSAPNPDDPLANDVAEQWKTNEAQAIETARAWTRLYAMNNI

[7] = target: T6, Apoptotic protease-activating factor 1 (Homo sapiens, UniProt O14727)
T6 sequence (O14727 whole entry): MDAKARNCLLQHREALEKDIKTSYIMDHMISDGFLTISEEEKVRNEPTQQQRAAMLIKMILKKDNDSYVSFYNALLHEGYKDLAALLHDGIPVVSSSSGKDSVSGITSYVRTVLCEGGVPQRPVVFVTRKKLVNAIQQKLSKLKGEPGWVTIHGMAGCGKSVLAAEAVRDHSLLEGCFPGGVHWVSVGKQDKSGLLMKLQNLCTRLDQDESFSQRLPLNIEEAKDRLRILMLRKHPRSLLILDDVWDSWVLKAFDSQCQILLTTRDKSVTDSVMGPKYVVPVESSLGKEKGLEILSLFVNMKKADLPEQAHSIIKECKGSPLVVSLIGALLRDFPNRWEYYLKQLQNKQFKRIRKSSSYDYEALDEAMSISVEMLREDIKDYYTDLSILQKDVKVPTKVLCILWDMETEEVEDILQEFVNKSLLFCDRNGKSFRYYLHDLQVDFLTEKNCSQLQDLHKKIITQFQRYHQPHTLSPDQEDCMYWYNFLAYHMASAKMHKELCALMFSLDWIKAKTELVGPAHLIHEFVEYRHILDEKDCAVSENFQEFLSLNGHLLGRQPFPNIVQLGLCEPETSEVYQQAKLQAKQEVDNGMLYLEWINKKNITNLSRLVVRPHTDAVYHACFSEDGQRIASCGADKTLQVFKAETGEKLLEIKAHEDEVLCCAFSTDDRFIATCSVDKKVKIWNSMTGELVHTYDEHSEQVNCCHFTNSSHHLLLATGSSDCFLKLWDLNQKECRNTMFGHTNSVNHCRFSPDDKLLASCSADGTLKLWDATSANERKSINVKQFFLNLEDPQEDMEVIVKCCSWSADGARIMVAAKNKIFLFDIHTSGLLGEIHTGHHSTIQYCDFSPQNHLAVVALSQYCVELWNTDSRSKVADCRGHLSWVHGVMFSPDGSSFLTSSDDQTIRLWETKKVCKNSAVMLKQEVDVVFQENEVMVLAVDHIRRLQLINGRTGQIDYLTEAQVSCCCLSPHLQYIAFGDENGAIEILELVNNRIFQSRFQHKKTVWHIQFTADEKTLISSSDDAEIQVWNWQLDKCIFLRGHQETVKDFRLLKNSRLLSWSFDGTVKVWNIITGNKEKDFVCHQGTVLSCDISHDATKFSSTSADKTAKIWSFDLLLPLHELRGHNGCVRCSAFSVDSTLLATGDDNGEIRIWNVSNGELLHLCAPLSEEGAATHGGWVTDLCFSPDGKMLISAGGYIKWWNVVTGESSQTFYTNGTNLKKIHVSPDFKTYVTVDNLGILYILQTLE

Row | IC50 [2] | IC50 [3] | IC50 [4] | IC50 [6] | IC50 [7] | Compound | IC50 [1] | CC50 [5]
1 | > 99 µM (inactive) | > 99 µM (inactive) | 39.1 µM (active) |  |  | Cc1ccc(C(=O)Nc2sc3c(c2C#N)CCCCCC3)o1 | > 99 µM (inactive) | 
2 |  |  |  | > 20 µM (inactive) | 19.2 µM (active) | COc1ccc(S(=O)(=O)N2CCN(c3ccc4nnc(-c5ccc(F)cc5)n4n3)CC2)cc1 |  | > 50 µM (active)
3 | > 99 µM (inactive) | > 99 µM (inactive) | > 99 µM (inactive) |  |  | O=C(c1ccc(Cl)s1)N(Cc1cccnc1)c1nc2c(F)cc(F)cc2s1 | > 99 µM (inactive) | 
